Data set [1] is described as follows: Phase solubility studies with cyclodextrins (Higuchi and Connors), complexation efficiency (Loftsson). The format is physicochemical. To be noted: phosphate buffer; for complexation efficiency (CE), range over the media: citrate buffer, WFI. How it is done:
Cyclodextrins solutions (from 26 mM to 264 mM) were prepared within sodium citrate (50 mM, pH 3) and sodium phosphate (80 mM, pH 2.7) buffer solutions and WFI. […] Aliquots were drawn from these suspensions and filtered through a Pall Life Science (Cortland, NY, USA) 0.45 µm filter with a Versapore acrylic copolymer membrane before quantification. The pH of these suspensions was checked before filtration.
(§1) Quantification of mefloquine was performed using a Shimadzu® Nexera® high-performance liquid chromatography system (Kyoto, Japan). One microliter of samples was eluted on a 150 mm × 2.1 mm 1.7 µm octadodecyl Acquity® column (Waters, Milford, CT, USA) at 40 °C using an isocratic ammonia buffer(120 mM, pH 10):acetonitrile:methanol (40:40:20, v/v/v) mobile phase at a 1 mL/min flow rate. The samples were diluted to 1/10th with the mobile phase before injection. Quantification was performed at 283 nm with daily made calibration curves. This method was linear for concentrations ranging from 10 to 5000 mg/L. The limit of quantification was estimated at […] and the repeatability and intermediate fidelity were good (coefficient of variation < 5%) for concentrations ranging from 50 to 5000 mg/L.
Complexation efficiencies (CE) were determined from the phase solubility studies using the Loftsson method. CE = (D/CD)/(CD) = Slope/(1 − Slope) where (D/CD) is the concentration of dissolved complex; (CD) is the concentration of dissolved free CD, and Slope is the slope of the phase-solubility profile.

Data set [2] in a line: 19F NMR titration, association constant by 1:1 isotherm fit. The data set is classed as physicochemical. To be noted: D2O, 300 K, total 5 mM. How it is done: The stoichiometry of the complex was determined using Job’s method. […] The total molar concentration and the total volume were kept constant at 5 mM and 500 µL, respectively, and the molar ratio of each component was varied from 0 to 1. Corresponding ^19F NMR spectra were recorded. The observation of chemical shifts varying in a linear fashion with the concentrations of bound species was obtained and affords the corresponding Job plots as described elsewhere.
^19F NMR Titrations: the same experimental data set of Job plot titrations was used. The association constants were obtained by fitting a 1:1 isotherm according to the programs available at http://app.supramolecular.org/bindfit/ (accessed on 19 October 2023).

For data set [3] the following is noted: piperidine's basicity; cited from earlier work.
For data set [4] the following is noted: hydrochloride salt, cited from earlier work.
The subject of a further data set is caco-2. Further details: method as in PMID 27045516. Particulars: cited from earlier work.
The test system of the next data set is p-Gp. To be noted: cited from earlier work.
Data set [5] in a line: Photostability study (ICH), HPLC content. The data set is classed as physicochemical. To be noted: 168 days; for change in mefloquine content: 25 °C, 60% RH, 7500 Lux and 1.1 W/m^2; for color change: light exposure. As for the experimental part:
The solutions were stored in type 1 glass vials (n = 3 for each solution) sealed with a rubber septum. […] Photostability studies were conducted using the Binder KBF P240 climatic chamber (Tuttligen, Germany), equipped with UVA and visible illumination sources set at 7500 Lux and 1.1 W/m^2. The chamber was maintained at a temperature of 25 ± 2 °C and a relative humidity of 60 ± 5% during the 6-months study.
The method was adapted using pharmacopeia recommendations for utilization with the Phenomenex® Kinetex® 2.6 µm, 150 × 2.1 mm column (Torrance, CA, USA), featuring the same octadecyl stationary phase with a smaller particle size. By employing this column, the flow rate was optimized at 0.4 mL/min.

Data set [6] is described as follows: Solubility of mefloquine hydrochloride in buffer solutions and water for injection. The data set is classed as physicochemical. Particulars: for solubility at 24 h: thermodynamic from solid. How it is done: These suspensions were sonicated for 1 h and stirred for 24 h at 24 °C and protected from the light. Aliquots were drawn from these suspensions and filtered through a Pall Life Science (Cortland, NY, USA) 0.45 µm filter with a Versapore acrylic copolymer membrane before quantification. The pH of these suspensions was checked before filtration.
as §1

Where a name gives a salt, the structure may show the parent alone. Read-outs that look alike come from different tables or passages of the source.

As to `CC(O)COC[C@H]1O[C@@H]2O[C@H]3[C@H](O)[C@@H](O)[C@@H](O[C@H]4[C@H](O)[C@@H](O)[C@@H](O[C@H]5[C@H](O)[C@@H](O)[C@@H](O[C@H]6[C@H](O)[C@@H](O)[C@@H](O[C@H]7[C@H](O)[C@@H](O)[C@@H](O[C@H]8[C@H](O)[C@@H](O)[C@@H](O[C@H]1[C@H](O)[C@H]2O)O[C@@H]8COCC(C)O)O[C@@H]7COCC(C)O)O[C@@H]6COCC(C)O)O[C@@H]5COCC(C)O)O[C@@H]4COCC(C)O)O[C@@H]3COCC(C)O` (stereo partly drawn) [HP-β-CD, hydroxypropyl-β-cyclodextrin], the “complexation efficiency (CE), range over the media” value in data set [1] is reported as 0.1–0.13. In data set [2], the “average association constant (K1:1)” value was 140.5 M⁻¹.

As to `OC(c1cc(C(F)(F)F)nc2c(C(F)(F)F)cccc12)C1CCCCN1` (stereo not drawn) [mefloquine, mefloquine hydrochloride], in data set [3], the pKa is 8.6. In addition, the solubility was 1.950 mg/mL in data set [4] (acetate buffer, pH 4.5, 37 °C) and 1.806 mg/mL in data set [4] (water, pH 6.5, 37 °C). Moreover, in the data set with caco-2, the permeability result is given as “around 9 × 10^−6 cm/s”. For the same compound, in the data set with p-Gp, the p-Gp inhibition result is listed as “moderate”. Besides, the “change in mefloquine content” value in data set [5] (10 mg/mL in 200 mM RAMEB solution) and in data set [5] (10 mg/mL in acetonitrile:water (50:50)) was “No substantial change” in each case. For the same compound, the color change entry in data set [5] (RAMEB solution) and in data set [5] (acetonitrile:water (50:50) solution) was “No color change” in each case. Also, the “additional peaks (degradation products) in chromatograms” value in data set [5] (both solutions) is listed as “did not reveal any additional peak appearances”. Besides, the solubility at 24 h amounted to 640 µg/mL in data set [6] (aqueous buffer, citrate buffer, pH 2.7, 24 °C); 4810 µg/mL in data set [6] (aqueous buffer, phosphate buffer, pH 2.6, 24 °C); 780 µg/mL in data set [6] (aqueous buffer, phosphate buffer, pH 6.5, 24 °C); 4120 µg/mL in data set [6] (water for injection (purified water), purified water, final pH 4.6, 24 °C). Further, in data set [6] (same pH value), the “change in solubility, citrate buffer compared to phosphate buffer” value is on record as “eight-fold decrease”. The “solubility compared with previously reported” value in data set [6] (versus ref 4) is reported as “two-fold higher”.

Consider “randomly methylated β-cyclodextrin [RAMEB]”, for which, in data set [1], the “complexation efficiency (CE), range over the media” value was 0.31–0.38 and the “equivalents of cyclodextrin to achieve target concentration of 26.5 mM (10 mg/mL) mefloquine” value was “approximately two”. Moreover, the “average association constant (K1:1)” value in data set [2] amounted to 333.4 M⁻¹.

Source of the values: PMC10747339 (Pharmaceutics, 2023).
